Consider eight molecules from ChEMBL document CHEMBL2021815, “Metabolism of 4-Aminopiperidine Drugs by Cytochrome P450s: Molecular and Quantum Mechanical Insights into Drug Design” (ACS Med Chem Lett, 2011).

Where only a bound is given, the exact number is not on record here.

Assay type in all cases: ADME, Microsome
The test system of one data set is Liver microsomes. Put plainly: Clearance in human liver microsomes at 1 uM.
The next data set addresses T1, CYP2B6 (Homo sapiens, UniProt P20813).
T1 sequence (P20813 whole entry): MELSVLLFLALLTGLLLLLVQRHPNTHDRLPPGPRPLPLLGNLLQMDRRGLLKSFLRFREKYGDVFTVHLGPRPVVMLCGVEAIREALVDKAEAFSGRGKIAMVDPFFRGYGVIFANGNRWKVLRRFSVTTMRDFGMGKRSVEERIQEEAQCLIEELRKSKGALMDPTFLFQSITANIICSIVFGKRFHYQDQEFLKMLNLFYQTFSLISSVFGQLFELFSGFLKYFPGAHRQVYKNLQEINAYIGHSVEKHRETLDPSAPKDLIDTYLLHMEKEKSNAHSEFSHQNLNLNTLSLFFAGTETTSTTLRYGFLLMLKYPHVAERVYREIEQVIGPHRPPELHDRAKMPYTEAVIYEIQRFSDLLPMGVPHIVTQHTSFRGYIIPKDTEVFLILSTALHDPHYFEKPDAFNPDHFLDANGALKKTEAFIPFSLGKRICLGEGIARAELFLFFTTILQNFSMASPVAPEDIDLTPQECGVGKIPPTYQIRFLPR
Nature of the data set: Half life in human liver microsomes assessed as CYP2B6-mediated parent compound depletion at 1 uM.

The target of the next data set is T2, CYP2C8 (Homo sapiens, UniProt P10632).
T2 sequence (P10632 whole entry): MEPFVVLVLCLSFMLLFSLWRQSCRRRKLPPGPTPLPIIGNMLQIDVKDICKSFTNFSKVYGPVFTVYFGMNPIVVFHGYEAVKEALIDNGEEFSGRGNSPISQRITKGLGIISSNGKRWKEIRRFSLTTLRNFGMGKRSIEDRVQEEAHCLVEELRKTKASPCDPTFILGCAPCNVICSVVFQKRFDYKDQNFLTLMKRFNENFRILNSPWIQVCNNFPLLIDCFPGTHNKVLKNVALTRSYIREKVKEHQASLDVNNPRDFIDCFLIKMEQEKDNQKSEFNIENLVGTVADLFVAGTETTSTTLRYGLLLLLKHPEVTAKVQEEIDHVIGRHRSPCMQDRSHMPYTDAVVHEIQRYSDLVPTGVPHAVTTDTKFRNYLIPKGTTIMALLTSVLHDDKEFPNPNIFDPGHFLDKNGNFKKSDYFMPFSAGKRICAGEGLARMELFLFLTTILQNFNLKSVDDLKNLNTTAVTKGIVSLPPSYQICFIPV
Nature of the data set: Half life in human liver microsomes assessed as CYP2C8-mediated parent compound depletion at 1 uM. A general note: Liver microsomes are a subcellular fraction often used to study metabolism.

The target in the next data set is T3, CYP1A2 (Homo sapiens, UniProt P05177).
T3 sequence (P05177 whole entry): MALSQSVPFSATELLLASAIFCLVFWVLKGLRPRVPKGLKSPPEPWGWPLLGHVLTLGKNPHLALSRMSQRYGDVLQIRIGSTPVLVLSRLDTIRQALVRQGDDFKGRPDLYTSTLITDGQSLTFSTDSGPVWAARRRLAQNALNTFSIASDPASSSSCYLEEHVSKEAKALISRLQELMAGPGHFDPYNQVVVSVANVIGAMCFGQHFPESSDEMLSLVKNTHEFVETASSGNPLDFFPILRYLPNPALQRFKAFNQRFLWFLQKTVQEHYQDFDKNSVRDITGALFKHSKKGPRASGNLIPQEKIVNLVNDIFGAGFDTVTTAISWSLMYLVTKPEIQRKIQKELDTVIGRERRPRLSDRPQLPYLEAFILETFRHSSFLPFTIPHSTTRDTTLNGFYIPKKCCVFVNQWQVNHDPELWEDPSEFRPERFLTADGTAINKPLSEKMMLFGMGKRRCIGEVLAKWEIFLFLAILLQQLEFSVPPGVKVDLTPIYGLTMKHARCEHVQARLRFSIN
Put plainly: Half life in human liver microsomes assessed as CYP1A2-mediated parent compound depletion at 1 uM.

Another data set has as its target CYP2C19 (Homo sapiens, UniProt P33261). Nature of the data set: Half life in human liver microsomes assessed as CYP2C19-mediated parent compound depletion at 1 uM.
In the next data set the target is CYP3A4 (Homo sapiens, UniProt P08684). Put plainly: Half life in human liver microsomes assessed as CYP3A4-mediated parent compound depletion at 1 uM.
CYP3A4, sequence (P08684 whole entry): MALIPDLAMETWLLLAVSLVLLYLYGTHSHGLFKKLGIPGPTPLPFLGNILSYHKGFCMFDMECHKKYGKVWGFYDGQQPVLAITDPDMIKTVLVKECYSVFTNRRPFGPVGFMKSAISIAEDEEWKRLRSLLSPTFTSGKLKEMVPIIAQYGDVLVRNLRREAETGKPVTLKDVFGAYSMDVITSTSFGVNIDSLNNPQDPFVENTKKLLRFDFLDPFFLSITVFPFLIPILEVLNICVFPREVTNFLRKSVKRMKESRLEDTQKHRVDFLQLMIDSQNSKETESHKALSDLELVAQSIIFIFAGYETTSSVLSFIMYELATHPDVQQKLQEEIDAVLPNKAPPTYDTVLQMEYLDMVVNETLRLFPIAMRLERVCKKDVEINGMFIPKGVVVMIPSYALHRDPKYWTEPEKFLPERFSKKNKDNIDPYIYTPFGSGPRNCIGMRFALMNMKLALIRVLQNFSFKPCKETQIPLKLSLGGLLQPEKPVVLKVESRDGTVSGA
The next data set addresses CYP2C9 (Homo sapiens, UniProt P11712). Put plainly: Half life in human liver microsomes assessed as CYP2C9-mediated parent compound depletion at 1 uM.
A further data set addresses CYP2D6 (Homo sapiens, UniProt P10635). Put plainly: Half life in human liver microsomes assessed as CYP2D6-mediated parent compound depletion at 1 uM.

What is called half-life is how long it takes for the measured level to halve.

CYP2D6, sequence (P10635 whole entry): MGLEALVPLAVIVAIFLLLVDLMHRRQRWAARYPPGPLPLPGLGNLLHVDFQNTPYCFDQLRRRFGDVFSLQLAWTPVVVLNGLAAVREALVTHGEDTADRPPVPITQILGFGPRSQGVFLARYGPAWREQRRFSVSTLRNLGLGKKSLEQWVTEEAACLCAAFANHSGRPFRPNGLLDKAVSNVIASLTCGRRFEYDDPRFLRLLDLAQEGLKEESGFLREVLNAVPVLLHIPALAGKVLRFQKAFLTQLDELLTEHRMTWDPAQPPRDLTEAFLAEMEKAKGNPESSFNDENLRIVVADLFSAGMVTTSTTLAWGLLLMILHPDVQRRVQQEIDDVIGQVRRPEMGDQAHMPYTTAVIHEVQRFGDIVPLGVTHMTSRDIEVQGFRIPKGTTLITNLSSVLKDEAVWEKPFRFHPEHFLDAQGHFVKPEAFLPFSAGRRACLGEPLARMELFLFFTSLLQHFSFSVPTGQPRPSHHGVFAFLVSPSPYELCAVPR
CYP2C9, sequence (P11712 whole entry): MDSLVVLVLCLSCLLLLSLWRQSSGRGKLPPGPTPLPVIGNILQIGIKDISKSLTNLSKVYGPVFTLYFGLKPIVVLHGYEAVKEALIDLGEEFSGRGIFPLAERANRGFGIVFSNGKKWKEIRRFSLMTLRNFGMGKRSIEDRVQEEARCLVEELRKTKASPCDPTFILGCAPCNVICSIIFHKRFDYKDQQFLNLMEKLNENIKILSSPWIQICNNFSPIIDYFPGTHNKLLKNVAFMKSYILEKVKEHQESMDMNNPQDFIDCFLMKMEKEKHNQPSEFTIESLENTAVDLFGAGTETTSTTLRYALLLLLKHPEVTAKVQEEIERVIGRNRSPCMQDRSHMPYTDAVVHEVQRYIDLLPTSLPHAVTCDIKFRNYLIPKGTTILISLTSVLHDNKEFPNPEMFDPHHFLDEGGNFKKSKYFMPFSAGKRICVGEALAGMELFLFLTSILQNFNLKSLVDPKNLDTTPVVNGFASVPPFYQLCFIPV
CYP2C19, sequence (P33261 whole entry): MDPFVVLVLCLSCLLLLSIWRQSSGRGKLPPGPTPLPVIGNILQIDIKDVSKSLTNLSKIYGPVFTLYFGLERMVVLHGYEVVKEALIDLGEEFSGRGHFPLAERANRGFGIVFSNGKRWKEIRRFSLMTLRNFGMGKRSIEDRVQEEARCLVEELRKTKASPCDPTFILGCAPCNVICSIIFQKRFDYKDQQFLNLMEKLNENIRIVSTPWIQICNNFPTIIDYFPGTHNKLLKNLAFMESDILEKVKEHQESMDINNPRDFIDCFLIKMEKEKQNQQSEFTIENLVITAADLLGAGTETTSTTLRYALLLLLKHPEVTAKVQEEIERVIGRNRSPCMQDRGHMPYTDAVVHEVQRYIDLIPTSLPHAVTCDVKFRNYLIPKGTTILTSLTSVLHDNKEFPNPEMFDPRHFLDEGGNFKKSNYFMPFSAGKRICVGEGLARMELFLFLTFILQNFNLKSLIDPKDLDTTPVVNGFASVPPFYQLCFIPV

In the data set on Liver microsomes, `O=C(CCCN1CCC(n2c(O)nc3ccccc32)CC1)c1ccc(F)cc1` [BENPERIDOL] registered a CLH of 42 µL/min/mg. In addition, the half-life at 1 µM on CYP2B6 was greater than 1 h; at CYP2C8, 0.73 h; on CYP1A2 it was greater than 1 h; at CYP2C19, greater than 1 h; at CYP3A4, 0.055 h; at CYP2C9 it was greater than 1 h. The half-life at 1 µM on CYP2D6 worked out at 0.173 h.
Regarding `COc1ccc(CCN2CCC(Nc3nc4ccccc4n3Cc3ccc(F)cc3)CC2)cc1` [ASTEMIZOLE], the “Intrinsic clearance in liver microsomes” value in the data set with Liver microsomes turned out to be 136 µL/min/mg. The half-life at 1 µM was greater than 1 h on CYP2B6; greater than 1 h on CYP2C8; greater than 1 h on CYP1A2; greater than 1 h at CYP2C19; 0.025 h at CYP3A4; greater than 1 h at CYP2C9. In addition, the half-life at 1 µM on CYP2D6 worked out at 0.0667 h.
For `COc1cc(N)c(Cl)cc1C(=O)NC1CCN(Cc2ccccc2)CC1` [CLEBOPRIDE], the “Intrinsic clearance in liver microsomes” value with Liver microsomes was determined as 50.4 µL/min/mg. Besides, the half-life at 1 µM is greater than 1 h at CYP2B6; greater than 1 h on CYP2C8; greater than 1 h at CYP1A2; greater than 1 h on CYP2C19; less than 0.0833 h on CYP3A4; greater than 1 h at CYP2C9. The half-life at 1 µM on CYP2D6 was greater than 1 h.
As to `CN(c1nc2ccccc2s1)C1CCN(CC(O)COc2ccc(F)cc2)CC1` (stereo unspecified) [SABELUZOLE], the “Intrinsic clearance in liver microsomes” value in the data set with Liver microsomes was 37 µL/min/mg. Also, the half-life at 1 µM on CYP2B6 is greater than 1 h; on CYP2C8 it was greater than 1 h; on CYP1A2, greater than 1 h; on CYP2C19 it was greater than 1 h; on CYP3A4 it was less than 0.0833 h; on CYP2C9, greater than 1 h. Also, at CYP2D6, the half-life at 1 µM is 0.025 h.
In turn, `O=c1[nH]c2ccccc2n1C1CCN(CCCC(c2ccc(F)cc2)c2ccc(F)cc2)CC1` [PIMOZIDE] yielded a CLH in the data set with Liver microsomes of 57 µL/min/mg. Moreover, the half-life at 1 µM on CYP2B6 was greater than 1 h; at CYP2C8, greater than 1 h; at CYP1A2, greater than 1 h; on CYP2C19, greater than 1 h; at CYP3A4, 0.045 h; on CYP2C9 it was greater than 1 h. Further, at CYP2D6, the half-life at 1 µM was determined as 0.0533 h.
Take `O=C(NC1CCN(CCc2c[nH]c3ccccc23)CC1)c1ccccc1` [INDORAMIN]: the “Intrinsic clearance in liver microsomes” value in the data set on Liver microsomes was 46.4 µL/min/mg. The half-life at 1 µM on CYP2B6 was greater than 1 h; on CYP2C8, greater than 1 h; at CYP1A2, greater than 1 h; at CYP2C19, greater than 1 h; on CYP3A4 it was 0.267 h; on CYP2C9 it was greater than 1 h. Moreover, the half-life at 1 µM on CYP2D6 was less than 0.0833 h.
On to `COc1cc(N)c(Cl)cc1C(=O)NC1CCN(CCCOc2ccc(F)cc2)CC1OC` (stereo unspecified) [CISAPRIDE], for which the “Intrinsic clearance in liver microsomes” value with Liver microsomes came to 120.7 µL/min/mg. Further, the half-life at 1 µM on CYP2B6, at CYP2C8, on CYP1A2, at CYP2C19, at CYP2C9 and at CYP2D6 was greater than 1 h each time.
In the data set with Liver microsomes, `O=c1[nH]c2ccccc2n1CCCN1CCC(n2c(=O)[nH]c3cc(Cl)ccc32)CC1` [DOMPERIDONE] registered a CLH of 108.6 µL/min/mg.
